What all share (type): biochemical
For one experiment, the target named is CDK2/cyclinA(h) (Homo sapiens, UniProt P24941). Briefly: CDK2/cyclinA(h) kinase assay. Particulars: for Inhibitory activity (% of control), CDK2/cyclinA(h): 3 μM, percent of control kinase activity. As for the experimental part:
(§1) Six compounds (presumptive single agents) were tested against a panel of 50 kinases. The results are presented in Table 2; numbers for each kinase indicate the percent of control kinase activity in the presence of a 3μM concentration of the indicated agent.
(§2) Agents that target two or more different kinases are useful in the methods of the invention as described elsewhere herein. Such compounds may be identified, and their effect on certain kinases may be identified, using the assays briefly described below in Examples 4-83. Each of these assays was carried out as described in Davies et al., Biochem. J., 351:95-105 (2000). All assays were carried out at 10 μM ATP unless otherwise noted.
(§3) In a final reaction volume of 25 μl, CDK2/cyclinA (h) (5-10 mU) is incubated with 8 mM MOPS pH 7.0, 0.2 mM EDTA, 0.1 mg/ml histone H1, 10 mM MgAcetate and [γ-^33p-ATP] (specific activity approx. 500 cpm/pmol, concentration as required). The reaction is initiated by the addition of Mg^2+ [γ-^33P-ATP]. After incubation for 40 minutes at room temperature, the reaction is stopped by the addition of 5 μl of a 3% phosphoric acid solution. 10 μl of the reaction is then spotted onto a P30 filtermat and washed three times for 5 minutes in 75 mM phosphoric acid and once in methanol prior to drying and scintillation counting.

The target in the next experiment is CDK7/cyclinH/MAT1 (Homo sapiens, UniProt P50613). Briefly: CDK7/cyclinH/MAT1 kinase assay. The conditions noted are these: 3 μM; percent of control kinase activity. How it is done: as §1, §2
CDK7/cyclinH/MAT1, sequence (P50613 whole entry): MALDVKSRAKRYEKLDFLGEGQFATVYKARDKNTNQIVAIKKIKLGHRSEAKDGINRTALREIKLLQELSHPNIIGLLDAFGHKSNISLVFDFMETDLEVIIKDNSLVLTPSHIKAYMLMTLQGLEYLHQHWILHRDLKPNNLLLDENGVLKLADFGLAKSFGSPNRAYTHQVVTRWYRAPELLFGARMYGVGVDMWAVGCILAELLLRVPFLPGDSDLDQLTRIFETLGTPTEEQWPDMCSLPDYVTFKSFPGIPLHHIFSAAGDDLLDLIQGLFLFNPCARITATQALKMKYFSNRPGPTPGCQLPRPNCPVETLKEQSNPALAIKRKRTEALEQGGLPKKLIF
CDK7/cyclinH/MAT1, sequence (P51946 whole entry partner): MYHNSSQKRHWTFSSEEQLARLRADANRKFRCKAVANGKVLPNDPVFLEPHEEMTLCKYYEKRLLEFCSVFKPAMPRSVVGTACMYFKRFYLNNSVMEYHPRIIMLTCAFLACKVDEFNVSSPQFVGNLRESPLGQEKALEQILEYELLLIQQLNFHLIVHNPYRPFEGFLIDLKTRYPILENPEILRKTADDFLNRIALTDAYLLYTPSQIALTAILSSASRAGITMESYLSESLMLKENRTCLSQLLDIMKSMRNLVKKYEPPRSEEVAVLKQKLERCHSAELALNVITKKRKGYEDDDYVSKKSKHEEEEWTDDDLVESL
CDK7/cyclinH/MAT1, sequence (P51948 whole entry partner): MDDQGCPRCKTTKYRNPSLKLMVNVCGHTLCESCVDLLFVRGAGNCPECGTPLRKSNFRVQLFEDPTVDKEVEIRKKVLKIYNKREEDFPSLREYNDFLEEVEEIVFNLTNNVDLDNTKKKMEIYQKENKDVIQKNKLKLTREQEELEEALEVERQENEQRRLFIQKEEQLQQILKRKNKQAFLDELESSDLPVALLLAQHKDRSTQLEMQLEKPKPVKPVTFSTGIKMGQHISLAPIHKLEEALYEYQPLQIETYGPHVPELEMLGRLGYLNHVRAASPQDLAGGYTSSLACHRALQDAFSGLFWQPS
as §3, with “CDK7/cyclinH/MAT1” for “CDK2/cyclinA”, “500 μM peptide,” for “0.1 mg/ml histone H1,”, “[γ-^33P-ATP] [specific” for “[γ-^33p-ATP] (specific”, “[γ-33 P-ATP].” for “[γ-^33P-ATP].”

The next experiment addresses cSRC(h) (Homo sapiens, UniProt P12931). The experiment in a line: cSRC(h) kinase assay. The conditions noted are these: for Inhibitory activity (% of control), cSRC(h): 3 μM, percent of control kinase activity. How it is done:
as §1, §2
as §3, with “cSRC” for “CDK2/cyclinA”, “250 μM […] (Cdc2 peptide; SEQ ID NO:7),” for “0.1 mg/ml histone H1,”, “[γ-^33P-ATP] (Specific” for “[γ-^33p-ATP] (specific”

The target of the next experiment is T1, Bmx(h) (Homo sapiens, UniProt P51813).
T1 sequence (P51813 1-675): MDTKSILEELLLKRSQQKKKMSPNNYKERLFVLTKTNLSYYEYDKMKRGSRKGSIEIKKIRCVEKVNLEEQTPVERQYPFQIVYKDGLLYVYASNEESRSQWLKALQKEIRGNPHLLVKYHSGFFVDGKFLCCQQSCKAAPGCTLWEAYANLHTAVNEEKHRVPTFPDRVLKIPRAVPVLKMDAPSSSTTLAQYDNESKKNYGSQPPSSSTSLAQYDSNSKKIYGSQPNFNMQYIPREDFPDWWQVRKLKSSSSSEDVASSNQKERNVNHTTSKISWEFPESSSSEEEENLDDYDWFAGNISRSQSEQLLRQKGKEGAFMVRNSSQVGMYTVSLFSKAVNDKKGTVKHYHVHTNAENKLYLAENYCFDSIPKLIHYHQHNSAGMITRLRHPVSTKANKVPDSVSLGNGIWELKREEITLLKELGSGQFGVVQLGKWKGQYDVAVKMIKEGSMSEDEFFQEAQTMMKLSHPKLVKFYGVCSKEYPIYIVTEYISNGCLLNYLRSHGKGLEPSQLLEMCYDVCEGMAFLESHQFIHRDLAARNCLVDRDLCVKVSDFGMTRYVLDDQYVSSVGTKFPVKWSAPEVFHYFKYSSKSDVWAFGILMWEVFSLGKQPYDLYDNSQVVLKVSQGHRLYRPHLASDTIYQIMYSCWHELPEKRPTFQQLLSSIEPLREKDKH
The experiment in a line: Bmx(h) kinase assay. Particulars: 3 μM; percent of control kinase activity. As for the experimental part: as §1, §2

The next experiment addresses IR(h) (Homo sapiens, UniProt P06213). Briefly: IR(h) kinase assay. The conditions noted are these: 3 μM; percent of control kinase activity. How it is done:
as §1, §2
In a final reaction volume of 25 μl, IR (h) (5-10 mU) is incubated with 50 mM Tris pH 7.5, 0.1 mM EGTA, 0.1 mM NaVanadate, 0.1% β-mercaptoethanol, 250 μM […] (SEQ ID NO: 15), 10 mM MnCl2, 10 mM MgAcetate and [γ-^33P-ATP] (Specific activity approx. 500 cpm/pmol, concentration as required). The reaction is initiated by the addition of Mg^2+ [γ-^33P-ATP]. After incubation for 40 minutes at room temperature, the reaction is stopped by the addition of 5 μl of a 3% phosphoric acid solution. 10 μl of the reaction is then spotted onto a P30 filtermat and washed three times for 5 minutes in 75 mM phosphoric acid and once in methanol prior to drying and scintillation counting.

The next experiment addresses MEK1(h) (Homo sapiens, UniProt Q02750). The experiment in a line: MEK1(h) kinase assay. Particulars: for Inhibitory activity (% of control), MEK1(h): 3 μM, percent of control kinase activity. How it is done:
as §1, §2
The reaction is initiated by the addition of the MgATP. After incubation for 40 minutes at room temperature, 5 μl of this incubation mix is used to initiate a MAPK2 (m) assay, which is described on […].

For the next experiment, the system named is panel of 50 kinases. Briefly: Panel of 50 kinases (Table 2), count of inhibited kinases. The conditions noted are these: compared to a no-compound control; 3 μM. How it is done: as §1
CC006 (5-(5-Cyclopentyl-1H-[1,2,4]triazol-3-yl)-3-(4-fluoro-phenyl)-1H-indazole) and CC007 (3-(5-(1H-1,2,4-triazol-3-yl)(1H-indazol-3-yl))phenyl-N-cyclopentylcarboxamide) were included as controls.

Here are results for 4 compounds from patent US20050107386A1, “Methods of treating diseases and disorders by targeting multiple kinases” (priority 2003, published 2005).

Structures are written as SMILES.

IR(h), sequence (P06213 28-1382): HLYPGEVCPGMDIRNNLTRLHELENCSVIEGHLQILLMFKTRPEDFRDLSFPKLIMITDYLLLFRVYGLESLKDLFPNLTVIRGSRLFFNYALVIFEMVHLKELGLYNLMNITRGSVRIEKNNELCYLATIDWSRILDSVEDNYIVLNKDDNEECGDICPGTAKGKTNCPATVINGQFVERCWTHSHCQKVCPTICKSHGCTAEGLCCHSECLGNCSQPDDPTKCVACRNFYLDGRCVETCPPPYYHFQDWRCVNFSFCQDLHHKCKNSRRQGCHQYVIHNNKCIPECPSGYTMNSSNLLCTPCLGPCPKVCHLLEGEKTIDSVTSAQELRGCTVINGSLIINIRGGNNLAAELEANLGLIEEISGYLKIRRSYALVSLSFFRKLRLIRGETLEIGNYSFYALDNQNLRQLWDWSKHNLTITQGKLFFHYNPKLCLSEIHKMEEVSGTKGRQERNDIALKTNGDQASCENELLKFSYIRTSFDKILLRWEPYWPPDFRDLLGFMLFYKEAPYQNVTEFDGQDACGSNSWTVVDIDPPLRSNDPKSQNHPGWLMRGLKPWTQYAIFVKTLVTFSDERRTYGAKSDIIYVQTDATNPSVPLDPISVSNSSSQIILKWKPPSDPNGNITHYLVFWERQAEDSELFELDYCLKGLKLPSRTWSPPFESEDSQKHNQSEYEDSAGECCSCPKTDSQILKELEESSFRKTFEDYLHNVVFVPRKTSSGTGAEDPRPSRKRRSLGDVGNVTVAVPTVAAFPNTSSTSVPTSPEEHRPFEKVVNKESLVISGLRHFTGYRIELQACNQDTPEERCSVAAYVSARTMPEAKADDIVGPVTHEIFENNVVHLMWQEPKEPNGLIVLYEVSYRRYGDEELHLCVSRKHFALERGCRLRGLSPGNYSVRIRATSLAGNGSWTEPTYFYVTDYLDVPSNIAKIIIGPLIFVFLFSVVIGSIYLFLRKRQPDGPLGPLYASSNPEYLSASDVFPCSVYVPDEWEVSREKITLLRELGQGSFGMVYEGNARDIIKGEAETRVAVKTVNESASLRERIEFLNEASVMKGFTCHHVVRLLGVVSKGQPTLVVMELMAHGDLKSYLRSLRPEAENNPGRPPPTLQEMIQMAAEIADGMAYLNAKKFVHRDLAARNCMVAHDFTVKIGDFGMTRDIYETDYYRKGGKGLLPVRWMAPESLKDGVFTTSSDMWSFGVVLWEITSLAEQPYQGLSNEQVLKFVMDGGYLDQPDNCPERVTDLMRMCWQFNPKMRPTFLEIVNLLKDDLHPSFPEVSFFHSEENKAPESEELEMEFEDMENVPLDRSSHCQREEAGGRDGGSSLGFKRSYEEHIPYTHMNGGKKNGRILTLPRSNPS
MEK1(h), sequence (Q02750 whole entry): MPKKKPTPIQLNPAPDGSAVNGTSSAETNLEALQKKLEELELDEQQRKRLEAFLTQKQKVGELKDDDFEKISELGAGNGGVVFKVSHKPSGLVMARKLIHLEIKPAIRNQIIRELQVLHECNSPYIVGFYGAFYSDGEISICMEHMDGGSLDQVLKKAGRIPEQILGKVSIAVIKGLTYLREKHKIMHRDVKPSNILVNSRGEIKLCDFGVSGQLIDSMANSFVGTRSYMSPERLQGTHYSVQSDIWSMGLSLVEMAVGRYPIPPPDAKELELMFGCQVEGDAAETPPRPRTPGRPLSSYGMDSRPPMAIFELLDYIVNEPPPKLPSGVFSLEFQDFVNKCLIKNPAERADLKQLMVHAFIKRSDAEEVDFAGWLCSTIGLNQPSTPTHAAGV
cSRC(h), sequence (P12931 whole entry): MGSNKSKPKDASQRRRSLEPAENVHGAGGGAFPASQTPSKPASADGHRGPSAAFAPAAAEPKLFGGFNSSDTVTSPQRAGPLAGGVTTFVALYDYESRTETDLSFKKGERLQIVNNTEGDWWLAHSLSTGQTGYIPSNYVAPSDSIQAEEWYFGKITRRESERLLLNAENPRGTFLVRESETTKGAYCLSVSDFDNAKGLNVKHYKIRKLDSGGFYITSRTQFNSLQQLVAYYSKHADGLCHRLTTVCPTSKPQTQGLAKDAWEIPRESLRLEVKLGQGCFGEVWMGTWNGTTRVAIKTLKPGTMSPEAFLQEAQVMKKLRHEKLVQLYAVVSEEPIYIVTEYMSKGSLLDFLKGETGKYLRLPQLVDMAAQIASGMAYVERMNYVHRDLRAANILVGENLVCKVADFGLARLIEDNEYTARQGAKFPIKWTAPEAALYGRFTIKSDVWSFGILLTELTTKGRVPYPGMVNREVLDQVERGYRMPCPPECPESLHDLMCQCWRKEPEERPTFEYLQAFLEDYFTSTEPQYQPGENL

For `COc1ccc2cc(-c3n[nH]c4ccc(-c5n[nH]c(CN6CCOCC6)n5)cc34)ccc2c1` [CC001, 3-(6-Methoxynaphthalen-2-yl)-5-(5-Morpholin-4-Ylmethyl-1H-[1,2,4]Triazol-3-yl)-1H-Indazole], the “Inhibitory activity (% of control), CDK2/cyclinA(h)” value on CDK2/cyclinA(h) was 4 % of control. Further, on CDK7/cyclinH/MAT1, the “Inhibitory activity (% of control), CDK7/cyclinH/MAT1” value is reported as 13 % of control. The “Inhibitory activity (% of control), cSRC(h)” value on cSRC(h) is listed as 2 % of control. Also, on Bmx(h), the “Inhibitory activity (% of control), Bmx(h)” value is reported as 74 % of control. Also, the “Inhibitory activity (% of control), IR(h)” value on IR(h) is on record as 74 % of control. For the same compound, at MEK1(h), the “Inhibitory activity (% of control), MEK1(h)” value is 4 % of control. The “number of kinases listed in Table 2 whose activity is inhibited by more than 95%” value in the experiment on panel of 50 kinases is 16.
As for `CC(C)Cc1nc(-c2ccc3[nH]nc(-c4ccc5cc(OCCN6CCCC6)ccc5c4)c3c2)n[nH]1` [CC002, 5-(5-Isobutyl-1H-[1,2,4]Triazol-3-yl)-3-[6-(2-Pyrrolidin-1-yl-Ethoxy)-Naphthalen-2-yl]-1H-Indazole], in the experiment with panel of 50 kinases, the “number of kinases listed in Table 2 whose activity is inhibited by more than 95%” value stood at 29.
Regarding `CC(C)(C)Cc1nc(-c2ccc3[nH]nc(-c4ccc5cc(OCc6ccccn6)ccc5c4)c3c2)n[nH]1` [CC004, 5-[5-(2,2-Dimethyl-propyl)-1H-[1,2,4]triazol-3-yl]-3-[6-(pyridine-2-ylmethoxy)-naphthalen-2-yl]-1H-indazole], the “Inhibitory activity (% of control), CDK2/cyclinA(h)” value at CDK2/cyclinA(h) is 2 % of control. For the same compound, the “inhibitory activity against CDK2, in words” value against CDK2/cyclinA(h) (summary of Table 2) is recorded as “good inhibitory activity”. Besides, the “Inhibitory activity (% of control), CDK7/cyclinH/MAT1” value at CDK7/cyclinH/MAT1 was 19 % of control. For the same compound, the “Inhibitory activity (% of control), cSRC(h)” value at cSRC(h) was 67 % of control. Further, the “inhibitory activity against cSrc, in words” value against cSRC(h) (summary of Table 2) was “somewhat less inhibitory activity”. In addition, the “Inhibitory activity (% of control), Bmx(h)” value on Bmx(h) is on record as 98 % of control. Besides, the “Inhibitory activity (% of control), IR(h)” value on IR(h) is 89 % of control. Besides, the “Inhibitory activity (% of control), MEK1(h)” value on MEK1(h) is on record as 11 % of control. Also, at MEK1(h) (summary of Table 2), the “inhibitory activity against MEK1, in words” value is reported as “good inhibitory activity”. The “number of kinases listed in Table 2 whose activity is inhibited by more than 95%” value with panel of 50 kinases is listed as 16.
With `CCN1CCC[C@H]1COc1ccc2cc(-c3n[nH]c4ccc(-c5nc(CC(C)(C)C)n[nH]5)cc34)ccc2c1` [CC005, 2-[((2s)-1-ethylpyrrolidin-2-yl)methoxy]-6-{5-[3-(2,2-Dimethylpropyl)(1H-1,2,4,-triazol-5-yl)](1H-indazol-3-yl)}naphthalene], the “Inhibitory activity (% of control), CDK2/cyclinA(h)” value on CDK2/cyclinA(h) was 2 % of control. For the same compound, the “Inhibitory activity (% of control), CDK7/cyclinH/MAT1” value at CDK7/cyclinH/MAT1 is on record as 7 % of control. Further, the “Inhibitory activity (% of control), cSRC(h)” value at cSRC(h) was 3 % of control. Further, the “Inhibitory activity (% of control), Bmx(h)” value on Bmx(h) was 36 % of control. For the same compound, the “Inhibitory activity (% of control), IR(h)” value on IR(h) is listed as 31 % of control. Moreover, the “Inhibitory activity (% of control), MEK1(h)” value on MEK1(h) is recorded as 2 % of control.
